Results published in publication PMC12349723, “Computationally accelerated identification of P-glycoprotein inhibitors” (PLOS One, 2025).

How the values were obtained:
DU145 cells = test: MTT viability assay, non-P-gp overexpressing DU145 parental line, with or without PTX; format: cell-based, human; details: for Sensitization of DU145 cells to PTX: 15 µM compound + PTX vs PTX alone; for % Survival, Mean, 15 µM compound + 500 nM PTX / viability at 15 µM: mean of 8 samples; for viability at 15 µM: Homo sapiens, DU-145, 48 h, read-out: % Survival, Mean, 15 µM Compound alone
Outline: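 DU145 cells, 3,000 per well in RPMI, exposed 48 h at 37 °C to compounds, with or without paclitaxel. MTT added for 4 h, formazan dissolved in DMSO, absorbance at 570 nm; survival expressed as percent of vehicle (or vehicle-plus-chemotherapeutic) control.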

P-gp = target: T1, P-gp (Homo sapiens, UniProt P08183); test: LC-MS/MS intracellular accumulation assay with or without tariquidar (P-gp transport substrate test) in DU145-TXR cells; format: in vitro ADME; details: for P-gp transport substrate assessment: 5 µM compound with or without 500 nM tariquidar, LC-MS/MS
T1 construct: The MDR, P-gp overexpressing DU145-TXR cells were maintained under positive selection pressure; endogenous in cells; host or cells: DU145-TXR (paclitaxel-resistant sub-line of DU145 human prostate cancer cells)
T1 sequence (P08183 whole entry): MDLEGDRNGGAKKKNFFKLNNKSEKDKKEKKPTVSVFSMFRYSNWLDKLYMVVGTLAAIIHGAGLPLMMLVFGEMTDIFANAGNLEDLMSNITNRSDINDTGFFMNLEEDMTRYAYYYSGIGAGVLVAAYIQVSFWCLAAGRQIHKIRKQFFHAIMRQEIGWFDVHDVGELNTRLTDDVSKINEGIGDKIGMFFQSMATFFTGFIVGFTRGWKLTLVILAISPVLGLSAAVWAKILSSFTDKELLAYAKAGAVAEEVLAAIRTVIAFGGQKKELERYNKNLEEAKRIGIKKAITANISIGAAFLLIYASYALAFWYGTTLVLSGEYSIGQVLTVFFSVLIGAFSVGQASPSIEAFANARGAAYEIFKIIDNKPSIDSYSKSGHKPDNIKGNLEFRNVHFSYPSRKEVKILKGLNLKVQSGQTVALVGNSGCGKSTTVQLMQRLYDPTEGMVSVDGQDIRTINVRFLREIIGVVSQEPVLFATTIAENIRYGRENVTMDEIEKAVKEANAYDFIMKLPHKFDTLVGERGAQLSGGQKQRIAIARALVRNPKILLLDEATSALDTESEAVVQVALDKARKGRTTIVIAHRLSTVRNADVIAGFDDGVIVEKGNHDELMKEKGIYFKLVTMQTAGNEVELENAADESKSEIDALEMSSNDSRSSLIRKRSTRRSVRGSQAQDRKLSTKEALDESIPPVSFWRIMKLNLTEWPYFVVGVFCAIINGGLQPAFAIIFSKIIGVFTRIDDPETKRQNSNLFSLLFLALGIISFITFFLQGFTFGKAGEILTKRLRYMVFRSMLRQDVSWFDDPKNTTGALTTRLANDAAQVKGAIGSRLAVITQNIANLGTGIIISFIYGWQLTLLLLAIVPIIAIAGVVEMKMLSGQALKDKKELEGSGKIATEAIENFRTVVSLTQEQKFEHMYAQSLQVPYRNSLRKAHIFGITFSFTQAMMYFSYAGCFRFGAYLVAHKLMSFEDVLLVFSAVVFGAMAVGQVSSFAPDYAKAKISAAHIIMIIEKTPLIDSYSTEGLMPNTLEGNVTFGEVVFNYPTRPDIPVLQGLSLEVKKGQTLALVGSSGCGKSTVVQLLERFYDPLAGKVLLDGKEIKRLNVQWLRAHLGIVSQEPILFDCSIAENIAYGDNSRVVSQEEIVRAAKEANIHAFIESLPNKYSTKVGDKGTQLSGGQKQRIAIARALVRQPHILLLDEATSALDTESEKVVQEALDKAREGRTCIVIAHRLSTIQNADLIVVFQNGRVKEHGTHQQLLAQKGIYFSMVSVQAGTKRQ
Outline: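 Analyte peak area normalised to internal standard and to lysate protein (BSA curve); relative accumulation compared between −/+ TQR by Student's t-test. Daunorubicin served as P-gp substrate positive control.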

[1] = DU145 cells, 48 h, single samples, 2 trials x 4 samples
[2] = DU145-TXR, 5 µM compound, 2.5 h, with 500 nM tariquidar, mean ± SD, triplicate
[3] = DU145-TXR, 5 µM compound, 2.5 h, without tariquidar, mean ± SD, triplicate
[4] = significant difference = likely P-gp transport substrate

| Compound | Sensitization of DU145 cells to PTX (DU145 cells) | % Survival, Mean, 15 µM compound + 500 nM PTX (DU145 cells; DU145 cells, 48 h) [%] | % Survival, 15 µM Compound alone (individual samples) (DU145 cells; [1]) [%] | viability at 15 µM (DU145 cells; DU145 cells, 48 h) [%] | P-gp transport substrate assessment (P-gp; DU145-TXR, 2.5 h) | Intracellular accumulation (normalized ratio of compound to internal standard), Trial 1, + TQR (P-gp; [2]) | Intracellular accumulation (normalized ratio of compound to internal standard), Trial 2, + TQR (P-gp; [2]) | Intracellular accumulation (normalized ratio of compound to internal standard), Trial 1, - TQR (P-gp; [3]) | Intracellular accumulation (normalized ratio of compound to internal standard), Trial 2, - TQR (P-gp; [3]) | P (- TQR vs + TQR), Trial 1 (P-gp; Student's T test of the mean) | P (- TQR vs + TQR), Trial 2 (P-gp; Student's T test of the mean) | Significance of accumulation with tariquidar, Trial 1 (P-gp; [4]) | Significance of accumulation with tariquidar, Trial 2 (P-gp; [4]) | Intracellular accumulation (normalized ratio of compound to internal standard), Trial 3, + TQR (P-gp; [2]) | Intracellular accumulation (normalized ratio of compound to internal standard), Trial 3, - TQR (P-gp; [3]) | P (- TQR vs + TQR), Trial 3 (P-gp; Student's T test of the mean) | Significance of accumulation with tariquidar, Trial 3 (P-gp; [4]) | % Survival, 15 µM compound + 500 nM PTX (individual samples) (DU145 cells; [1]) [%] |
| --- | --- | --- | --- | --- | --- | --- | --- | --- | --- | --- | --- | --- | --- | --- | --- | --- | --- | --- |
| O=S(=O)(Cc1nc2ccccc2n1CC(O)c1ccc(Cl)cc1)c1ccccc1 (stereo not shown) [Compound 97, OC(Cn1c(CS(=O)(=O)c2ccccc2)nc2ccccc12)c1ccc(Cl)cc1] | insignificantly sensitize DU145 cells to PTX | 23.9 | 72 | 73.5 | unlikely to be transport substrates of P-gp | 0.08 ± 0.03 | 0.10 ± 0.02 | 0.07 ± 0.02 | 0.10 ± 0.02 | 0.7 | > 1 | N.S. (P > 0.05 = not significant (N.S.)) | N.S. (P > 0.05 = not significant (N.S.)) | – | – | – | – | – |
| Cc1ccc(-c2noc(-c3cn(Cc4ccc(NS(=O)(=O)c5ccccc5F)cc4)cn3)n2)cc1 [Compound 103, Cc1ccc(cc1)-c1noc(n1)-c1cn(Cc2ccc(NS(=O)(=O)c3ccccc3F)cc2)cn1] | insignificantly sensitize DU145 cells to PTX | 29.4 | – | 77.7 | potential P-gp transport substrates | 5.61 ± 1.34 | 3.75 ± 0.34 | 5.13 ± 0.6 | 2.63 ± 0.52 | 0.6 | 0.04 | N.S. (P > 0.05 = not significant (N.S.)) | * (P < 0.05 = *) | 3.73 ± 0.15 | 3.21 ± 0.23 | 0.03 | * (P < 0.05 = *) | – |
| O=S(=O)(CCSc1nnc(-c2ccccc2)c2ccccc12)c1ccccc1 [Compound 96, O=S(=O)(CCSc1nnc(-c2ccccc2)c2ccccc12)c1ccccc1] | insignificantly sensitize DU145 cells to PTX | 28.8 | 65 | 77 | unlikely to be transport substrates of P-gp | 0.092 ± 0.036 | 0.163 ± 0.032 | 0.087 ± 0.009 | 0.121 ± 0.005 | 0.8 | 0.09 | N.S. (P > 0.05 = not significant (N.S.)) | N.S. (P > 0.05 = not significant (N.S.)) | – | – | – | – | 26 |
